Measured values as given in ChEMBL document CHEMBL1201862, “PubChem BioAssay data set” (2004).
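48-hour exposure; five concentrations; linearly interpolated endpoints. GI50 marks 50% less growth.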 Active and inactive are the calls of the source. Cut-off read from the data, not from the text of the source: active = GI50 up to about 1.1 µM and inactive = higher.

Experiments:
Test in all cases: inhibition of tumour cell growth, NCI panel, 48 h
DMS-114 = test system: DMS-114
KM-20L2 = test system: KM-20L2
DLD-1 = test system: DLD-1
DMS-273 = test system: DMS-273
HOP-18 = test system: HOP-18
M19-MEL = test system: M19-MEL
SNB-78 = test system: SNB-78
XF498 = test system: XF498
RXF 631 = test system: RXF 631

Measured: GI50

CNC(=O)OCc1nc(SC(C)C)n(C)c1COC(=O)NC
inactive: DMS-114 > 83.6 µM | KM-20L2 > 100 µM | DLD-1 > 100 µM | DMS-273 99.8 µM | HOP-18 > 100 µM | M19-MEL > 100 µM | SNB-78 65.6 µM

COc1ccc(-c2cc(O)c3cc4c(cc3n2)OCO4)c(OC)c1
inactive: DLD-1 36.8 µM | DMS-273 33.7 µM | XF498 30.3 µM | HOP-18 56.4 µM | M19-MEL 43 µM | SNB-78 54.7 µM

CC1NOC(=O)C1/N=N/c1ccccc1Br (configuration not stated)
inactive: DMS-114 18.9 µM | KM-20L2 38.3 µM | DLD-1 31.6 µM | DMS-273 31.6 µM | XF498 20.3 µM | HOP-18 26.5 µM | RXF 631 31.3 µM | M19-MEL 19 µM | SNB-78 26.5 µM

N/N=C1/C(=O)N(c2ccc(Cl)cc2)C(=O)C(=O)C1c1nc2ccccc2s1 (configuration not stated)
inactive: DMS-114 > 100 µM | KM-20L2 > 100 µM | DLD-1 > 100 µM | DMS-273 > 100 µM | XF498 > 95.1 µM | HOP-18 > 100 µM | M19-MEL > 100 µM | SNB-78 > 100 µM

CN/N=C(/CC(=O)c1sc(-n2nc(-c3ccccc3)cc2-c2ccccc2)nc1C)C(=O)Nc1ccc(Cl)c(Cl)c1
inactive: DLD-1 37.6 µM | M19-MEL 42.5 µM | SNB-78 14 µM

IC[P+]1(c2ccccc2)CCCC1
inactive: DMS-114 9.25 µM | KM-20L2 26.2 µM | DLD-1 52.2 µM | DMS-273 18.7 µM | HOP-18 58.7 µM | M19-MEL 21.3 µM | SNB-78 > 100 µM
active: XF498 < 0.01 µM

CC(=O)C1(O)Cc2c(O)c3c(c(O)c2C(OC2CC(N)C(O)C(C)O2)C1)C(=O)c1ccccc1C3=O (configuration not stated)
active: KM-20L2 < 0.0152 µM | DLD-1 0.023 µM | DMS-273 0.01 µM | XF498 < 0.0125 µM | HOP-18 0.01 µM | SNB-78 0.0457 µM

COC(=O)C1=C(C)N(NC(N)=O)C(C)(O)C12CCOC2=O (configuration not stated)
inactive: DMS-114 > 100 µM | KM-20L2 > 100 µM | DLD-1 > 100 µM | DMS-273 > 100 µM | XF498 > 100 µM | HOP-18 > 100 µM | M19-MEL > 100 µM | SNB-78 > 100 µM

COC(=O)CCc1cccnc1/C=N/O
inactive: DMS-114 > 100 µM | KM-20L2 > 100 µM | DLD-1 > 100 µM | DMS-273 > 100 µM | HOP-18 > 100 µM | RXF 631 > 100 µM | M19-MEL > 100 µM | SNB-78 > 100 µM

COc1ccccc1NC(=O)C1=C(C)NC(C)=C(C(=O)Nc2ccccc2OC)C1c1ccccc1F
inactive: DMS-114 47.8 µM | KM-20L2 92.9 µM | DLD-1 > 100 µM | DMS-273 70.3 µM | HOP-18 > 100 µM | RXF 631 > 100 µM | SNB-78 51.5 µM

O=C(CN1CCCCC1)N1CCc2c([nH]c3ccccc23)C1c1cccnc1 (configuration not stated)
inactive: DMS-114 > 100 µM | KM-20L2 > 100 µM | DLD-1 > 100 µM | DMS-273 > 100 µM | XF498 > 100 µM | HOP-18 > 100 µM | RXF 631 > 100 µM | M19-MEL > 100 µM | SNB-78 > 100 µM

Cn1nc(-c2ccccc2)c(C(=O)/C=C/c2ccc(Cl)cc2)c(N2CCCCC2)c1=O
inactive: DMS-114 1.92 µM | KM-20L2 2.43 µM | DLD-1 2.53 µM | DMS-273 2.31 µM | XF498 1.64 µM | HOP-18 2.16 µM | RXF 631 3.4 µM | M19-MEL 2.25 µM

CC(=O)NNc1nc(C)c(C(=O)NNC(=O)C(=O)Nc2ccc(C)c(C)c2)s1
inactive: DMS-114 32.2 µM | KM-20L2 > 100 µM | DLD-1 93.8 µM | DMS-273 > 100 µM | HOP-18 > 100 µM | M19-MEL 68.1 µM | SNB-78 > 100 µM

C=CCCCCC1CCC2CCC(CCCCC=C)N12 (configuration not stated)
inactive: DMS-114 15.7 µM | KM-20L2 12.1 µM | DMS-273 20 µM | HOP-18 21.3 µM | M19-MEL 20.4 µM

CC(C)=CC1CCc2ccccc2N1S(=O)(=O)c1ccc(C)cc1 (configuration not stated)
inactive: KM-20L2 1.34 µM | DLD-1 2.57 µM | XF498 3.63 µM | HOP-18 4.19 µM | RXF 631 2.96 µM | M19-MEL 1.44 µM | SNB-78 1.44 µM
active: DMS-114 1.06 µM | DMS-273 0.697 µM

Cc1c(C(=O)/C=C/c2ccccc2Cl)[n+]([O-])c2ccccc2[n+]1[O-]
inactive: DMS-114 6.97 µM | KM-20L2 16.9 µM | DLD-1 6.53 µM | DMS-273 14.3 µM | HOP-18 15 µM | RXF 631 15.2 µM | M19-MEL 14.7 µM | SNB-78 12.4 µM

c1ccc(OCCSCCCCCCCCCCSCCOc2ccccc2)cc1
inactive: DMS-114 > 100 µM | KM-20L2 > 100 µM | HOP-18 > 100 µM | RXF 631 > 100 µM | M19-MEL > 100 µM | SNB-78 > 100 µM

O=C(Nc1ccccc1)O/N=C1/CCCC/C1=C\c1ccccc1
inactive: DMS-114 12 µM | KM-20L2 19.6 µM | DLD-1 14.6 µM | DMS-273 15.9 µM | HOP-18 13.7 µM | RXF 631 18.3 µM | M19-MEL 18.1 µM | SNB-78 12.4 µM

CC12CCC(C)(c3cc(O)c(O)cc31)c1cc(O)c(O)cc12
inactive: DMS-114 14.8 µM | KM-20L2 19 µM | DLD-1 17.5 µM | DMS-273 17.3 µM | XF498 17.1 µM | RXF 631 20.2 µM | M19-MEL 13.7 µM | SNB-78 17.7 µM

C=C1C(=O)OC2C1CC[C@H](C)C1(O)C(O)CC(=O)[C@@]21C (some centres not stated)
inactive: DMS-114 16.7 µM | DLD-1 18.7 µM | DMS-273 22.3 µM | M19-MEL 12.3 µM | SNB-78 26.7 µM

[N-]=[N+]=NC(CI)c1cn([C@H]2C[C@H](O)[C@@H](CO)O2)c(=O)[nH]c1=O (some centres not stated)
inactive: DMS-114 56 µM | KM-20L2 > 100 µM | DLD-1 > 100 µM | DMS-273 > 100 µM | XF498 80.2 µM | HOP-18 2.92 µM | M19-MEL > 100 µM | SNB-78 > 100 µM

COc1cc2c(c(OC)c1OC)-c1ccc(SC)c(=O)cc1[C@@H](NC(=O)c1ccc(F)cc1)CC2
active: KM-20L2 0.0233 µM | DLD-1 0.0423 µM | DMS-273 < 0.01 µM | XF498 0.049 µM | M19-MEL 0.0409 µM | SNB-78 0.055 µM

O=C(NP(=O)(N1CC1)N1CC1)c1cc(I)ccc1I [DIIODBENZOTEPH]
inactive: DMS-114 19.9 µM | KM-20L2 > 100 µM | DLD-1 > 100 µM | DMS-273 11.6 µM | XF498 > 52.6 µM | HOP-18 > 92.3 µM | M19-MEL 58.9 µM | SNB-78 > 100 µM
